The target in test [1] is T1, LK35.2-hPD-L1 cells / PE-labeled PD-1-Ig (Homo sapiens, UniProt Q9NZQ7).
T1 construct: expressed in transfected cells; host or cells: LK35.2 mouse B cell line
The experiment in a line: LK35.2-hPD-L1 cell binding high-content screening assay. It counts as cell-based. Conditions: cell binding assay, cell line not given; cluster symbol; read-out: CBA IC50 cluster. A digest of the protocol: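 Using overnight-cultured LK35.2-hPD-L1 mouse B cells, compound was co-incubated with phycoerythrin-tagged human PD-1-Ig (final 1 nM) at 37 °C for one hour. Unbound label was removed by triple dPBS washing prior to high-content image acquisition and analysis.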

Another test concerns the target T2, Human PD-L1/PD-1 (Homo sapiens, UniProt Q9NZQ7).
T2 construct: made in house; host or cells: HEK293T
The test can be described thus: HTRF PD-1-Ig/PD-L1-His binding assay (human PD-L1). Conditions: cluster symbol; read-out: HTRF IC50 cluster. A digest of the protocol:
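Ig- and His-fused extracellular PD-1/PD-L1 binding in BSA/Tween-20 dPBS. HTRF with Eu anti-Ig (1 nM final) and APC anti-His (20 nM final).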
(In general: Time-resolved FRET reads energy transfer from a long-lived donor to a nearby acceptor.)

pIC50: −log10 of the molar value. Positions of bridges follow the written chain, without caps; N, C: chain ends. Non-standard residues stand in square brackets, D forms with d. Residues, ends and D or L forms follow the SMILES beside them. ξ: configuration not given here. Bta = N[C@@H](Cc1csc2ccccc12)C(=O)O; Hyp = O=C(O)[C@@H]1C[C@@H](O)CN1; NMeNle = CCCC[C@H](NC)C(=O)O; NMeM = CN[C@@H](CCSC)C(=O)O; NMeA = CN[C@@H](C)C(=O)O; Dap = NC[C@H](N)C(=O)O; ξC = NC(CS)C(=O)O

T1 sequence (Q9NZQ7 19-290): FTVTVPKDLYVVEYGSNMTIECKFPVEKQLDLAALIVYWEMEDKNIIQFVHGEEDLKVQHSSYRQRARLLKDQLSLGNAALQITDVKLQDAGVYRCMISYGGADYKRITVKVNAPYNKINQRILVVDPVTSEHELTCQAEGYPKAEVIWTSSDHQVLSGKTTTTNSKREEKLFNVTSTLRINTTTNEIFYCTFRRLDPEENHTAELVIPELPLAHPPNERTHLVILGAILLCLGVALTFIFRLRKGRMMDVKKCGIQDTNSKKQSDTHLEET
T2 sequence (Q9NZQ7 with tags, fused parts or gaps): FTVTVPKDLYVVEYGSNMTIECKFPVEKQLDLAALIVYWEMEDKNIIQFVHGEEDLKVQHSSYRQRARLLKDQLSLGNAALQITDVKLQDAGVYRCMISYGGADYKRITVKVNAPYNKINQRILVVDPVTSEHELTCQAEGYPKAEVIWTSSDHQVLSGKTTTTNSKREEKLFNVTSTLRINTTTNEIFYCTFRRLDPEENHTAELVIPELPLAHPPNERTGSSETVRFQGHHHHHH

On to `CCCC[C@H]1C(=O)N(C)[C@@H](CCCC)C(=O)N[C@@H](CCCNC(=N)N)C(=O)NC(C(=O)NCC(N)=O)CSCC(=O)N[C@@H](Cc2ccc(O)cc2)C(=O)N(C)[C@@H](C)C(=O)N[C@@H](CC(N)=O)C(=O)N2CCC[C@H]2C(=O)N[C@@H](Cc2cnc[nH]2)C(=O)N[C@@H](CO)C(=O)N2CCC[C@H]2C(=O)N[C@@H](Cc2c[nH]c3ccccc23)C(=O)N[C@@H](CO)C(=O)N[C@@H](Cc2c[nH]c3ccccc23)C(=O)N1C` (stereo partly shown) [Example 9067] ({CH2CO}-Y[NMeA]NPHSPWSW[NMeNle][NMeNle]R[ξC]G-NH2; thioether N-14), for which the pIC50 (as a rule, the negative decadic logarithm of the IC50, by convention in mol/L) in test [1] was 8.33 to 9.80; at Human PD-L1/PD-1 it was 8.17 to 9.41.

As for `CCCC[C@H]1C(=O)N(C)[C@@H](CCCC)C(=O)N[C@@H](CCCNC(=N)N)C(=O)NC(C(=O)NCC(N)=O)CSCC(=O)N[C@@H](Cc2ccc(O)cc2)C(=O)N(C)[C@@H](C)C(=O)N[C@@H](CC(N)=O)C(=O)N2CCC[C@H]2C(=O)N[C@@H](Cc2cnc[nH]2)C(=O)N[C@@H](CO)C(=O)N2C[C@H](O)C[C@H]2C(=O)N[C@@H](Cc2c[nH]c3ccccc23)C(=O)N[C@@H](CO)C(=O)N[C@@H](Cc2c[nH]c3ccccc23)C(=O)N1C` (stereo partly shown) [Example 9069] ({CH2CO}-Y[NMeA]NPHS[Hyp]WSW[NMeNle][NMeNle]R[ξC]G-NH2; thioether N-14), the pIC50 is 8.33 to 9.80 in test [1] and 8.17 to 9.41 at Human PD-L1/PD-1.

Take `CCCC[C@H]1C(=O)N(C)[C@@H](CCCC)C(=O)N[C@@H](CCCNC(=N)N)C(=O)NC(C(=O)NCC(N)=O)CSCC(=O)N[C@@H](Cc2ccc(O)cc2)C(=O)N(C)[C@@H](C)C(=O)N[C@@H](CC(N)=O)C(=O)N2CCC[C@H]2C(=O)N[C@@H](Cc2cnc[nH]2)C(=O)N[C@@H](CO)C(=O)N2C[C@H](O)C[C@H]2C(=O)N[C@@H](Cc2c[nH]c3ccccc23)C(=O)N[C@@H](CO)C(=O)N[C@@H](Cc2csc3ccccc23)C(=O)N1C` (stereo partly shown) [Example 9070] ({CH2CO}-Y[NMeA]NPHS[Hyp]WS[Bta][NMeNle][NMeNle]R[ξC]G-NH2; thioether N-14): the values for the pIC50 (in test [1]; at Human PD-L1/PD-1) were 8.33 to 9.80 and 7.52 to 8.17, respectively.

In the case of `CCCC[C@H]1C(=O)N(C)[C@@H](CCCC)C(=O)N[C@@H](CCCNC(=N)N)C(=O)NC(C(=O)NCC(N)=O)CSCC(=O)N[C@@H](Cc2ccc(O)cc2)C(=O)N(C)[C@@H](C)C(=O)N[C@@H](CC(N)=O)C(=O)N2CCC[C@H]2C(=O)N[C@@H](CO)C(=O)N[C@@H](CC(C)C)C(=O)N2C[C@H](O)C[C@H]2C(=O)N[C@@H](Cc2c[nH]c3ccccc23)C(=O)N[C@@H](CO)C(=O)N[C@@H](Cc2csc3ccccc23)C(=O)N1C` (stereo partly shown) [Example 9071] ({CH2CO}-Y[NMeA]NPSL[Hyp]WS[Bta][NMeNle][NMeNle]R[ξC]G-NH2; thioether N-14), the pIC50 was 8.33 to 9.80 in test [1] and 8.17 to 9.41 at Human PD-L1/PD-1.

Regarding `CCCC[C@H]1C(=O)N(C)[C@@H](CCCC)C(=O)N[C@@H](CCCNC(=N)N)C(=O)NC(C(=O)NCC(N)=O)CSCC(=O)N[C@@H](Cc2ccc(O)cc2)C(=O)N(C)[C@@H](C)C(=O)N[C@@H](CC(N)=O)C(=O)N2CCC[C@H]2C(=O)N[C@@H](CO)C(=O)N[C@@H](CC(C)C)C(=O)N2CCC[C@H]2C(=O)N[C@@H](Cc2c[nH]c3ccccc23)C(=O)N[C@@H](CO)C(=O)N[C@@H](Cc2csc3ccccc23)C(=O)N1C` (stereo partly shown) [Example 9072] ({CH2CO}-Y[NMeA]NPSLPWS[Bta][NMeNle][NMeNle]R[ξC]G-NH2; thioether N-14), the results for the pIC50 (in test [1]; on Human PD-L1/PD-1) were 8.33 to 9.80 and 8.17 to 9.41, respectively.

Turning to `CCCC[C@H]1C(=O)N(C)[C@@H](CCCC)C(=O)N[C@@H](CCCNC(=N)N)C(=O)NC(C(=O)NCC(N)=O)CSCC(=O)N[C@@H](Cc2ccc(O)cc2)C(=O)N(C)[C@@H](C)C(=O)N[C@@H](CC(N)=O)C(=O)N2CCC[C@H]2C(=O)N[C@@H](CO)C(=O)N[C@@H](CC(C)C)C(=O)N2CCC[C@H]2C(=O)N[C@@H](Cc2c[nH]c3ccccc23)C(=O)N[C@@H](CO)C(=O)N[C@@H](Cc2c[nH]c3ccccc23)C(=O)N1C` (stereo partly shown) [Example 9073] ({CH2CO}-Y[NMeA]NPSLPWSW[NMeNle][NMeNle]R[ξC]G-NH2; thioether N-14), the pIC50 is 8.33 to 9.80 in test [1] and 8.17 to 9.41 at Human PD-L1/PD-1.

Regarding `CCCC[C@H]1C(=O)N(C)[C@@H](CCCC)C(=O)N[C@@H](CCCNC(=N)N)C(=O)NC(C(=O)NCC(N)=O)CSCC(=O)N[C@@H](Cc2ccc(O)cc2)C(=O)N(C)[C@@H](C)C(=O)N[C@@H](CC(N)=O)C(=O)N2CCC[C@H]2C(=O)N[C@@H](CO)C(=O)N[C@@H](CC(C)C)C(=O)N2C[C@H](O)C[C@H]2C(=O)N[C@@H](Cc2c[nH]c3ccccc23)C(=O)N[C@@H](CO)C(=O)N[C@@H](Cc2c[nH]c3ccccc23)C(=O)N1C` (stereo partly shown) [Example 9074] ({CH2CO}-Y[NMeA]NPSL[Hyp]WSW[NMeNle][NMeNle]R[ξC]G-NH2; thioether N-14), the pIC50 in test [1] was 8.33 to 9.80; at Human PD-L1/PD-1 it was 8.17 to 9.41.

Turning to `CCCC[C@H]1C(=O)N(C)[C@@H](CCCC)C(=O)N[C@@H](CCCNC(=N)N)C(=O)NC(C(=O)N[C@@H](CO)C(N)=O)CSCC(=O)N[C@@H](Cc2ccc(O)cc2)C(=O)N(C)[C@@H](C)C(=O)N[C@@H](CC(N)=O)C(=O)N2CCC[C@H]2C(=O)N[C@@H](CO)C(=O)N[C@@H](CC(C)C)C(=O)N2C[C@H](O)C[C@H]2C(=O)N[C@@H](Cc2c[nH]c3ccccc23)C(=O)N[C@@H](CO)C(=O)N[C@@H](Cc2csc3ccccc23)C(=O)N1C` (stereo partly shown) [Example 9075] ({CH2CO}-Y[NMeA]NPSL[Hyp]WS[Bta][NMeNle][NMeNle]R[ξC]S-NH2; thioether N-14), the pIC50 was 8.33 to 9.80 in test [1] and 8.17 to 9.41 on Human PD-L1/PD-1.

For `CCCC[C@H]1C(=O)N(C)[C@@H](CCCC)C(=O)N[C@@H](CCCNC(=N)N)C(=O)NC(C(=O)N[C@@H](CO)C(N)=O)CSCC(=O)N[C@@H](Cc2ccc(O)cc2)C(=O)N(C)[C@@H](C)C(=O)N[C@@H](CC(N)=O)C(=O)N2CCC[C@H]2C(=O)N[C@@H](Cc2cnc[nH]2)C(=O)N[C@@H](CO)C(=O)N2CCC[C@H]2C(=O)N[C@@H](Cc2c[nH]c3ccccc23)C(=O)N[C@@H](CO)C(=O)N[C@@H](Cc2csc3ccccc23)C(=O)N1C` (stereo partly shown) [Example 9076] ({CH2CO}-Y[NMeA]NPHSPWS[Bta][NMeNle][NMeNle]R[ξC]S-NH2; thioether N-14), the pIC50 in test [1] was 7.14 to 8.32; on Human PD-L1/PD-1, 8.17 to 9.41.

Turning to `CCCC[C@H]1C(=O)N(C)[C@@H](CCCC)C(=O)N[C@@H](CCCNC(=N)N)C(=O)NC(C(=O)N[C@@H](CO)C(N)=O)CSCC(=O)N[C@@H](Cc2ccc(O)cc2)C(=O)N(C)[C@@H](C)C(=O)N[C@@H](CC(N)=O)C(=O)N2CCC[C@H]2C(=O)N[C@@H](Cc2cnc[nH]2)C(=O)N[C@@H](CO)C(=O)N2CCC[C@H]2C(=O)N[C@@H](Cc2c[nH]c3ccccc23)C(=O)N[C@@H](CO)C(=O)N[C@@H](Cc2c[nH]c3ccccc23)C(=O)N1C` (stereo partly shown) [Example 9077] ({CH2CO}-Y[NMeA]NPHSPWSW[NMeNle][NMeNle]R[ξC]S-NH2; thioether N-14), the pIC50 in test [1] was 7.14 to 8.32; at Human PD-L1/PD-1 it was 7.52 to 8.17.

As to `CCCC[C@H]1C(=O)N(C)[C@@H](CCCC)C(=O)N[C@@H](CCCNC(=N)N)C(=O)NC(C(=O)N[C@@H](CO)C(N)=O)CSCC(=O)N[C@@H](Cc2ccc(O)cc2)C(=O)N(C)[C@@H](C)C(=O)N[C@@H](CC(N)=O)C(=O)N2CCC[C@H]2C(=O)N[C@@H](Cc2cnc[nH]2)C(=O)N[C@@H](CO)C(=O)N2C[C@H](O)C[C@H]2C(=O)N[C@@H](Cc2c[nH]c3ccccc23)C(=O)N[C@@H](CO)C(=O)N[C@@H](Cc2csc3ccccc23)C(=O)N1C` (stereo partly shown) [Example 9078] ({CH2CO}-Y[NMeA]NPHS[Hyp]WS[Bta][NMeNle][NMeNle]R[ξC]S-NH2; thioether N-14), the figures for the pIC50 (in test [1]; at Human PD-L1/PD-1) were 8.33 to 9.80 and 7.52 to 8.17, respectively.

Consider `CCCC[C@H]1C(=O)N(C)[C@@H](CCCC)C(=O)N[C@@H](CCCNC(=N)N)C(=O)NC(C(=O)N[C@@H](CO)C(N)=O)CSCC(=O)N[C@@H](Cc2ccc(O)cc2)C(=O)N(C)[C@@H](C)C(=O)N[C@@H](CC(N)=O)C(=O)N2CCC[C@H]2C(=O)N[C@@H](Cc2cnc[nH]2)C(=O)N[C@@H](CO)C(=O)N2C[C@H](O)C[C@H]2C(=O)N[C@@H](Cc2c[nH]c3ccccc23)C(=O)N[C@@H](CO)C(=O)N[C@@H](Cc2c[nH]c3ccccc23)C(=O)N1C` (stereo partly shown) [Example 9079] ({CH2CO}-Y[NMeA]NPHS[Hyp]WSW[NMeNle][NMeNle]R[ξC]S-NH2; thioether N-14), for which the pIC50 is 7.14 to 8.32 in test [1] and 8.17 to 9.41 on Human PD-L1/PD-1.

For the molecule `CCCC[C@H]1C(=O)N(C)[C@@H](CCCC)C(=O)N[C@@H](CCCNC(=N)N)C(=O)NC(C(=O)N[C@@H](CO)C(N)=O)CSCC(=O)N[C@@H](Cc2ccc(O)cc2)C(=O)N(C)[C@@H](C)C(=O)N[C@@H](CC(N)=O)C(=O)N2CCC[C@H]2C(=O)N[C@@H](CO)C(=O)N[C@@H](CC(C)C)C(=O)N2C[C@H](O)C[C@H]2C(=O)N[C@@H](Cc2c[nH]c3ccccc23)C(=O)N[C@@H](CO)C(=O)N[C@@H](Cc2c[nH]c3ccccc23)C(=O)N1C` (stereo partly shown) [Example 9080] ({CH2CO}-Y[NMeA]NPSL[Hyp]WSW[NMeNle][NMeNle]R[ξC]S-NH2; thioether N-14), the negative logarithm of the IC50 (pIC50) in test [1] is 8.33 to 9.80; on Human PD-L1/PD-1, 8.17 to 9.41.

Regarding `CCCC[C@H]1C(=O)N(C)[C@@H](CCSC)C(=O)N[C@@H](CCCNC(=N)N)C(=O)NC(C(=O)NCC(N)=O)CSCC(=O)N[C@@H](Cc2ccc(O)cc2)C(=O)N(C)[C@@H](C)C(=O)N[C@@H](CC(N)=O)C(=O)N2CCC[C@H]2C(=O)N[C@@H](CN)C(=O)N[C@@H](CC(C)C)C(=O)N2CCC[C@H]2C(=O)N[C@@H](Cc2c[nH]c3ccccc23)C(=O)N[C@@H](CO)C(=O)N[C@@H](Cc2c[nH]c3ccccc23)C(=O)N1C` (stereo partly shown) [Example 9081] ({CH2CO}-Y[NMeA]NP[Dap]LPWSW[NMeNle][NMeM]R[ξC]G-NH2; thioether N-14), the pIC50 was 8.33 to 9.80 in test [1] and 8.17 to 9.41 at Human PD-L1/PD-1.
